Values quoted from earlier work in PubChem BioAssay AID1259409 (Chemical Carcinogenesis Research Information System (CCRIS), 2018).

System: rodent chemically induced tumor inhibition, incidence and multiplicity
Assay: CCRIS tumor inhibitor studies

CC1=C(/C=C/C(C)=C/C=C/C(C)=C\C(=O)O)C(C)(C)CCC1
tumour outcome (control, treated, inhibition, significance) (Carcinogen: N-BUTYL-N-(4-HYDROXYBUTYL)NITROSAMINE, 3817-11-6, Dose [Inhibitor]: 200 MG/KG DIET DAILY STARTING 7 D AFTER LAST CARCINOGEN DOSE AND CONTINUING THROUGH THE END OF STUDY (STUDY DURATION: 6, Route [Inhibitor]: ORAL, Species: MOUSE, Strain/Sex: C57BL/MALE, Target Tissue: Type of Lesion: URINARY BLADDER: TRANSITIONAL AND SQUAMOUS CELL CARCINOMA, Dose [Carcinogen]: 7.5 MG 2/WK FOR 6 WK, Promoter: NONE USED): 8/24 (33%), 0/19 (0%), 100%, p<0.01 | tumour outcome (control, treated, inhibition, significance) (Carcinogen: N-BUTYL-N-(4-HYDROXYBUTYL)NITROSAMINE, 3817-11-6, Dose [Inhibitor]: 200 MG/KG DIET DAILY STARTING 7 D AFTER LAST CARCINOGEN INTUBATION AND CONTINUING THROUGH THE END OF STUDY (STUDY DURATI, Route [Inhibitor]: ORAL, Species: MOUSE, Strain/Sex: C57BL/MALE, Target Tissue: Type of Lesion: URINARY BLADDER: NEOPLASM (CARCINOMA, NONINVASIVE TRANSITIONAL CELL PAPILLOMA), Dose [Carcinogen]: 10 MG 2/WK FOR 7 WK, Promoter: NONE USED): 12/22 (55%), 8/25 (32%), 42%, not significant | outcome (Carcinogen: N-BUTYL-N-(4-HYDROXYBUTYL)NITROSAMINE, 3817-11-6, Dose [Inhibitor]: 200 MG/KG DIET DAILY STARTING 7 D AFTER LAST CARCINOGEN INTUBATION AND CONTINUING THROUGH THE END OF STUDY (STUDY DURATI, Route [Inhibitor]: ORAL, Species: MOUSE, Strain/Sex: C57BL/MALE, Target Tissue: Type of Lesion: URINARY BLADDER: SQUAMOUS CELL CARCINOMA, Dose [Carcinogen]: 7.5 MG 2/WK FOR 6 WK, Promoter: NONE USED): 6/24 (25%), 0/19 (0%), p<0.05 | tumour outcome (control, treated, inhibition, significance) (Carcinogen: N-BUTYL-N-(4-HYDROXYBUTYL)NITROSAMINE, 3817-11-6, Dose [Inhibitor]: 200 MG/KG DIET DAILY STARTING 7 D AFTER LAST CARCINOGEN INTUBATION AND CONTINUING THROUGH THE END OF STUDY (STUDY DURATI, Route [Inhibitor]: ORAL, Species: MOUSE, Strain/Sex: C57BL/MALE, Target Tissue: Type of Lesion: URINARY BLADDER: SQUAMOUS CELL CARCINOMA, Dose [Carcinogen]: 10 MG 2/WK FOR 7 WK, Promoter: NONE USED): 6/22 (27%), 5/25 (20%), 26%, not significant | tumour outcome (control, treated, inhibition, significance) (Carcinogen: N-BUTYL-N-(4-HYDROXYBUTYL)NITROSAMINE, 3817-11-6, Dose [Inhibitor]: 200 MG/KG DIET DAILY STARTING 7 D AFTER LAST CARCINOGEN INTUBATION AND CONTINUING THROUGH THE END OF STUDY (STUDY DURATI, Route [Inhibitor]: ORAL, Species: MOUSE, Strain/Sex: C57BL/MALE, Target Tissue: Type of Lesion: URINARY BLADDER: TRANSITIONAL AND SQUAMOUS CELL CARCINOMA, Dose [Carcinogen]: 10 MG 2/WK FOR 7 WK, Promoter: NONE USED): 10/22 (45%), 7/25 (28%), 38%, not significant | tumour outcome (control, treated, inhibition, significance) (Carcinogen: N-BUTYL-N-(4-HYDROXYBUTYL)NITROSAMINE, 3817-11-6, Dose [Inhibitor]: 240 MG/KG DIET DAILY STARTING 1, 5 OR 9 WK AFTER LAST CARCINOGEN INTUBATION AND CONTINUING THROUGH THE END OF STUDY (STU, Route [Inhibitor]: ORAL, Species: RAT, Strain/Sex: F344/MALE, Target Tissue: Type of Lesion: URINARY BLADDER: TRANSITIONAL CELL CARCINOMA, Dose [Carcinogen]: 100 MG 2/WK FOR 6 WK, Promoter: NONE USED): 53%, 47%, 11%, not significant | tumour outcome (control, treated, inhibition, significance) (Carcinogen: N-BUTYL-N-(4-HYDROXYBUTYL)NITROSAMINE, 3817-11-6, Dose [Inhibitor]: 240 MG/KG DIET DAILY STARTING 1, 5 OR 9 WK AFTER LAST CARCINOGEN INTUBATION AND CONTINUING THROUGH THE END OF STUDY (STU, Route [Inhibitor]: ORAL, Species: RAT, Strain/Sex: F344/MALE, Target Tissue: Type of Lesion: URINARY BLADDER: TRANSITIONAL CELL CARCINOMA, Dose [Carcinogen]: 150 MG 2/WK FOR 6 WK, Promoter: NONE USED): 82%, 65%, 21%, p<0.01 | tumour outcome (control, treated, inhibition, significance) (Carcinogen: N-BUTYL-N-(4-HYDROXYBUTYL)NITROSAMINE, 3817-11-6, Dose [Inhibitor]: 240 MG/KG DIET DAILY STARTING 1, 5 OR 9 WK AFTER LAST CARCINOGEN INTUBATION AND CONTINUING THROUGH THE END OF STUDY (STU, Route [Inhibitor]: ORAL, Species: RAT, Strain/Sex: F344/MALE, Target Tissue: Type of Lesion: URINARY BLADDER: TRANSITIONAL CELL CARCINOMA, Dose [Carcinogen]: 200 MG 2/WK FOR 6 WK, Promoter: NONE USED): 94%, 74%, 21%, p<0.001 | tumour outcome (control, treated, inhibition, significance) (Carcinogen: N-BUTYL-N-(4-HYDROXYBUTYL)NITROSAMINE, 3817-11-6, Dose [Inhibitor]: 240 MG/KG DIET DAILY STARTING 1 WK AFTER LAST CARCINOGEN DOSE AND CONTINUING FOR DURATION OF STUDY (STUDY DURATION: 6 MO, Route [Inhibitor]: ORAL, Species: RAT, Strain/Sex: F344/MALE, Target Tissue: Type of Lesion: BLADDER: TRANSITIONAL CELL CARCINOMA (HIGH GRADE), Dose [Carcinogen]: 200 MG IN 0.5 ML OF 20% ETHANOL 2/WK FOR 6 WK, Promoter: NONE USED): 9/22 (41%), 4/21(19%), 54%, p<.05 | tumour outcome (control, treated, inhibition, significance) (Carcinogen: N-METHYL-N'-NITRO-N-NITROSOGUANIDINE, 70-25-7, Dose [Inhibitor]: 34 NMOL ONCE 0.5 HR BEFORE CARCINOGEN APPLICATION (STUDY DURATION: 25 WK), Route [Inhibitor]: DERMAL, Species: MOUSE, Strain/Sex: CD-1/FEMALE, Target Tissue: Type of Lesion: SKIN: PAPILLOMA, Dose [Carcinogen]: 5 UMOL IN 0.2 ML ACETONE ONCE 0.5 HR AFTER AGENT TREATMENT, Promoter: 12-O-TETRADECANOYLPHORBOL-13-ACETATE, 16561-29-8): 92%, 96%, -4%, not significant | tumour outcome (control, treated, inhibition, significance) (Carcinogen: N-METHYL-N-NITROSOUREA, 684-93-5, Dose [Inhibitor]: 12.5 MG/KG DAILY IN DIET STARTING 1 D AFTER LAST CARCINOGEN INJECTION AND CONTINUING FOR 256 D (STUDY DURATION: 285 D), Route [Inhibitor]: ORAL, Species: RAT, Strain/Sex: WISTAR-LEWIS/FEMALE, Target Tissue: Type of Lesion: URINARY BLADDER: PAPILLARY UROTHELIAL TUMOR, Dose [Carcinogen]: 1.5 MG IN 0.15 ML SALINE INJECTED INTO A SURGICALLY EXPOSED BLADDER 1/2 WK FOR A TOTAL OF 3 INJECTIONS, Promoter: NONE USED): 8/30 (27%), 2/21 (10%), 63%, p<0.05
